Here are results for eight molecules from EP1200455B1, “ENZYME CATALYZED THERAPEUTIC ACTIVATION” (Celmed Oncology (USA), Inc., priority 1999, dated 2001).

Data set [1] relates to H630R10. As to the kind of experiment: AlamarBlue cell proliferation (cytotoxicity) assay. The format is cell-based, human. The following applies: 120 hours drug exposure, dose range 10^-3 to 10^-10 M. As for the experimental part: (§1) Cells growing exponentially were transferred to 384-well flat bottom tissue culture plates. […] After 24 hours (day 0), 25 µL of complete medium containing the compounds over the dose range of 10^-3 to 10^-10 M were added in triplicate. Drug exposure time was 120 hours (day 5), after which growth inhibition was assayed. 5 µL of the redox indicator, alamarBlue, was added to each well (10% v/v).
(§2) Numbering in Tables 5 and 6 refer to the structures, shown infra. […] MCF7-TDX was derived from MCF7 breast tumor cells via selection in cell culture in the presence of Tomudex, a direct inhibitor of TS. […] Similarly, H630R10 is a 5FU (fluoropyrimidine) resistant colon cancer epithelial cell line derived from H630 colon cancer cells. […] HT1080, #12, is a fibrosarcoma tumor cell line that expresses high levels ofTS via a transgene introduced into HT1080 tumor cells. Normal cell lines used in these assays include CCD180co (normal colon epithelium) and Det551 (normal skin).

A further data set concerns MCF7TDX. As to the kind of experiment: AlamarBlue cell proliferation (cytotoxicity) assay. The format is cell-based, human. The following applies: 120 hours drug exposure, dose range 10^-3 to 10^-10 M. As for the experimental part: as §1, §2
A further data set relates to HT1080. As to the kind of experiment: AlamarBlue cell proliferation (cytotoxicity) assay. The following applies: dose range 10^-3 to 10^-10 M. The data set is classed as cell-based. As for the experimental part: as §1, §2
The subject of data set [2] is Tumor Cells. The data set is described as follows: AlamarBlue cell proliferation (cytotoxicity) assay, mean over tumor cells. The format is cell-based. The conditions noted are these: for activity (in words, summary of Tables 5 and 6): text comment on the cytotoxicity data; for mean IC30 over tumor cell lines: alamarBlue, mean of the MCF7TDX, H630R10 and HT1080 (µM). As for the experimental part:
as §1, §2

Data set [3] has as its system MCF7 (breast cancer cell line).
Experimental: (§5) 100 µM of BVdU was added to each dish and the cells continued to grow for 2 days at 37°C. After that, the medium was aspirated and the cells were washed twice with phosphate buffered saline (PBS). Then 1 ml of PBS per dish was added and the dishes were placed in a -80°C freezer. The cells were disrupted via freezing/thawing procedure, repeated twice. The cell debris in the resulting suspension were spun down (13,000 rpm,10 minutes) and the supernatant was deproteinized by passing though a Centrifugal Filter Device (Centrifree, 30,000 cut-off, Amicon) by centrifugation at 5,000 rpm for 30 minutes on Sorvall Super T21 centrifuge (Rotor SL-50-T, 1,912 g) at 20°C. The pass-through was concentrated to the volume of 100 µl, and injected onto an HPLC column (Adsorbosphere HS, C18, 5 µm, 4.6 mm x 150 mm, Alltech). The samples were analyzed using acetonitrile gradient in water containing trifluoroacetic acid. The peaks were detected at 300 mm the maximum of absorption of BVdU-derivatives, and the amounts of compounds were expressed as peak area at 300 nm. […]
(§6) The amounts of reference compounds BVdUMP or BVdU present in lysates call lines MCF7, MCF7TDX, and H630R10 each treated with BVdU, are expressed as an area of a corresponding HPLC peak at 300 nm. […]
(§7) Cells were incubated in complete media with 100 µm BVdU. Lysates were prepared and BVdUMP and BVdU levels were determined.
Data set [4] relates to MCF7TDX (Tomudex resistant breast cancer cell line).
Experimental: as §5, §6, §7
Data set [5] has as its system H630R10 (5-FU resistant colon cancer cell line).
Experimental: as §5, §6, §7
For data set [6], the system named is Det551. As to the kind of experiment: AlamarBlue cell proliferation (cytotoxicity) assay. The format is cell-based, human. The conditions noted are these: 120 hours drug exposure, normal skin cells. As for the experimental part: as §1, §2
Data set [7] has as its system Normal Cells. As to the kind of experiment: AlamarBlue cell proliferation (cytotoxicity) assay, mean over normal cells. The format is cell-based, human. The following applies: mean of CCd18co and Det551 (µM). As for the experimental part: as §1, §2
Data set [8] relates to CCd18co. The data set is described as follows: AlamarBlue cell proliferation (cytotoxicity) assay. The data set is classed as cell-based, human. The conditions noted are these: 120 hours drug exposure, normal colon epithelium cells. As for the experimental part: as §1, §2
In data set [9] the test system is H630R10. As to the kind of experiment: Crystal violet cell proliferation inhibition assay. The format is cell-based, human. The following applies: 72 hours incubation. As for the experimental part: (§3) Compound concentrations from 1 µM to 3000 µM were tested.
as §2

The test system of the next data set is HT1080 # 12. The data set is described as follows: Crystal violet cell proliferation inhibition assay. The data set is classed as cell-based. The following applies: high TS via transgene. As for the experimental part: as §3, §2
(§4) Table 7. Cytotoxic Activity of NB1024 Isomers

For data set [10], the system named is Tumor Cells. As to the kind of experiment: Crystal violet cell proliferation inhibition assay, mean over tumor cells. The data set is classed as cell-based. As for the experimental part: as §3, §2
In data set [11] the test system is Normal Cells. The data set is described as follows: Crystal violet cell proliferation inhibition assay, mean over normal cells. The conditions noted are these: mean of the CCD18co and Det551 columns. The format is cell-based, human. As for the experimental part: as §3, §2
Data set [12] has as its system CCd18co. The data set is described as follows: Crystal violet cell proliferation inhibition assay. The format is cell-based. The conditions noted are these: Homo sapiens, CCD-18Co, 72 hours incubation, normal colon epithelium cells. As for the experimental part: as §3, §2, §4
Data set [13] relates to Det551. The data set is described as follows: Crystal violet cell proliferation inhibition assay. The format is cell-based. The conditions noted are these: Homo sapiens, 72 hours incubation, normal skin cells. As for the experimental part:
as §3, §2, §4

Data set [14] has as its system H630R10 (5-FU resistant colon cancer cell line). As to the kind of experiment: Amount of nucleoside and monophosphate in cells (HPLC of lysates after BVdU treatment). The conditions noted are these: 2 days treatment with 100 µm BVdU.
Experimental: as §5, §6, §7
Where [15] appears, read: Homo sapiens, HT-1080, 120 hours drug exposure.

As to `O=c1ccn(C2CC(O)C(CO)O2)c(=O)[nH]1` (centres unmarked) [NB1026], the concentration for an effect of 30% (IC30) in the data set with H630R10 [1], in the data set on MCF7TDX and with HT1080 (120 hours drug exposure) was 1000 µM each time. Further, the “activity (in words, summary of Tables 5 and 6)” value in the data set on Tumor Cells [2] is on record as “little detectable activity”.
Regarding `O=c1[nH]c(=O)n([C@H]2C[C@H](O)[C@@H](COP(=O)(O)O)O2)cc1/C=C/Br` [BVdUMP], the figures for the “amount present in cell lysate, expressed as area of the HPLC peak at 300 nm” value in data set [3], in data set [4] and in data set [5] were 63.7, 10.9 and less than 1, respectively.
Regarding `COC(=O)[C@H](C)NP(=O)(OC[C@H]1O[C@@H](n2cc(/C=C/Cl)c(=O)[nH]c2=O)C[C@@H]1O)Oc1ccccc1` (some centres unmarked) [NB1013], the IC50 in the data set on Det551 [6] and in the data set with Normal Cells [7] was 570 µM throughout. Also, the figures for the IC30 with H630R10 [1] and in the data set with MCF7TDX were 92 µM and 26 µM, respectively. In the data set with Tumor Cells [2], the mean IC30 over tumor cell lines is 59 µM.
Take `COC(=O)C(C)NP(=O)(OCC1OC(n2ccc(=O)[nH]c2=O)CC1O)Oc1ccccc1` (centres unmarked) [NB1025]: the IC50 in the data set with CCd18co [8] and in the data set with Normal Cells [7] was 378 µM throughout. Also, the IC30 in the data set with MCF7TDX turned out to be 49 µM; with HT1080 (120 hours drug exposure) it was 454 µM. Besides, the mean IC30 over tumor cell lines with Tumor Cells [2] was 232 µM. Also, in the data set with Tumor Cells [2], the “activity (in words, summary of Tables 5 and 6)” value is “active”.
Turning to “5-(2-Bromovinyl)-2'-Deoxyuridine Phenyl N-Methoxy-L-alaninyl Phosphoramidate [NB1011]”, the IC50 was determined as 414 µM in the data set with CCd18co [8]; 398 µM with Det551 [6]; 406 µM in the data set with Normal Cells [7]; 130 µM in the data set on H630R10 [9]; 1.2 µM with HT1080 # 12 (72 hours incubation); 65.6 µM in the data set with Tumor Cells [10] (mean of the H630R10 and HT1080 # 12 columns (uM)). Half-maximal inhibition with Normal Cells [11] (IC50) required 382 µM. Moreover, the IC30 in the data set with H630R10 [1] is recorded as 82 µM; with MCF7TDX, 2 µM; in the data set with HT1080 (120 hours drug exposure) it was 182 µM. Further, in the data set on Tumor Cells [2], the mean IC30 over tumor cell lines worked out at 88.7 µM.
With `O=c1[nH]c(=O)n([C@H]2C[C@H](O)[C@@H](CO)O2)cc1C=CCl` [NB1020, 5-(2-chlorovinyl)-2'-deoxyuridine], the IC50 in the data set on CCd18co [8] (Homo sapiens, CCD-18Co) was found to be 1000 µM; in the data set with Normal Cells [7] (Homo sapiens, CCD-18Co), 1000 µM. The IC30 with H630R10 [1] (Homo sapiens) was found to be 326 µM; in the data set on MCF7TDX (Homo sapiens), 0.48 µM; with HT1080 (setting [15]), 1000 µM. Also, the mean IC30 over tumor cell lines in the data set with Tumor Cells [2] (Homo sapiens, HT-1080) worked out at 442 µM.
For the molecule `O=c1[nH]c(=O)n([C@H]2C[C@H](O)[C@@H](CO)O2)cc1/C=C/Br` [BVdU, (E)-5-(2-Bromovinyl)-2'-deoxyuridine, reference compound], the IC50 was found to be 1000 µM with CCd18co [8] (Homo sapiens, CCD-18Co); 1000 µM in the data set on Normal Cells [7] (Homo sapiens, CCD-18Co); 405 µM in the data set on H630R10 [9] (Homo sapiens); 1000 µM in the data set with CCd18co [12]; 625 µM with Det551 [13]; 7 µM with HT1080 # 12 (Homo sapiens, HT-1080, 72 hours incubation). The half-inhibitory concentration (IC50) with Tumor Cells [10] (Homo sapiens, HT-1080, mean of the H630R10 and HT1080 # 12 columns (uM)) is 206 µM; in the data set on Normal Cells [11] (Homo sapiens, CCD-18Co), 812 µM. Moreover, the results for the IC30 in the data set on H630R10 [1] (Homo sapiens), in the data set with MCF7TDX (Homo sapiens) and in the data set with HT1080 (setting [15]) were 201 µM, 0.02 µM and 719 µM, respectively. In addition, the mean IC30 over tumor cell lines in the data set on Tumor Cells [2] (Homo sapiens, HT-1080) came to 307 µM. Moreover, the “BvdUMP/(BVdUMP + BVdU) x100” value in data set [14] was less than 4.
Take `COC(=O)C(C)NP(=O)(OCC1OC(n2cc(C(F)(F)F)c(=O)[nH]c2=O)CC1O)Oc1ccccc1` (centres unmarked) [NB1014]: the figures for the IC50 in the data set with Det551 [6] and in the data set with Normal Cells [7] were 239 µM and 139 µM, respectively. In addition, the IC30 in the data set on H630R10 [1] was found to be 287 µM; in the data set on MCF7TDX, 396 µM. Also, the mean IC30 over tumor cell lines with Tumor Cells [2] was determined as 342 µM.
